Source: patent EP1149076B1, “O-THIOCARBAMOYL-AMINOALKANOL COMPOUNDS, THEIR PHARMACEUTICALLY ACCEPTABLE SALTS AND PROCESS FOR PREPARING THE SAME” (SK Corporation, priority 1999, dated 2000)

Assays:
mice (CD-1 strain) [1] = assay: Forced Swimming Test; assay type: in vivo; details: duration of immobility, one hour prior to test, 15-minute test period
Experimental: The therapeutic use of the compounds claimed in the present invention as antidepressants has been proven by the "Forced Swimming Test", a well known pharmacological screening methods for depression and the results are shown in the following Table II.
The procedure described by Porsolt et al., (1997) was used. Test compound was administered p.o. and i.p. to mice (CD-1 strain), one hour prior to the animals being immersed in a 1500mL glass beaker (16.5cm deep, 13.0cm diameter) filled with water (20 ∼ 23°C) to about 5cm from the top. Mice were kept in the water for a period of 15 minutes and the duration of immobility observed within the 15-minute test period was recorded. A mouse was judged to be immobile if it floated motionlessly in the water making only those movements necessary to keep its head above the water.

mice (CD-1 strain) [2] = assay: Maximal ElectroShock (MES) test; assay type: in vivo; details: for ED50: Mus musculus

Compound | Inhibition (reduction,%) (mice (CD-1 strain) [1]; i.p. (30mg/kg)) | Inhibition (reduction,%) (mice (CD-1 strain) [1]; p.o. (30mg/kg)) | also measured
CN(C)C(=S)OC[C@H](N)Cc1ccc(Cl)c(Cl)c1 [[drawing] the 2nd table, row 12] | 54.9% | 50.8% | 
NC(=S)OC[C@@H](N)Cc1ccccc1 | 51.2% |  | 
NC(=S)OC[C@H](N)Cc1ccccc1 [[drawing] the 2nd table, row 2] | 41.6% |  | 
CN(C)C(=S)OC[C@H](N)Cc1ccc(Cl)c(Cl)c1 [[drawing] the 3rd table, row 7] |  |  | MES (ip, 30mg/kg) (mice (CD-1 strain) [2]; ip, 30mg/kg, 4.0h, mice protected / mice tested): 1/3 (4.0h)
CNC(=S)OC[C@@H](N)Cc1ccccc1 |  |  | ED50 (mice (CD-1 strain) [2]; ip, 0.5h): 41.8 mg/kg; ED50 (mice (CD-1 strain) [2]; po, 0.5h): 152 mg/kg
NC(=S)OC[C@H](N)Cc1ccccc1 [[drawing] the 3rd table, row 2] |  |  | ED50 (mice (CD-1 strain) [2]; ip, 0.5h): 29 mg/kg; ED50 (mice (CD-1 strain) [2]; po, 0.5h): 189 mg/kg
CNC(=S)OCC(CN)c1ccccc1 (stereo not drawn) | 30.5% | 25.6% | 
CNC(=S)OCC(N)Cc1ccccc1F (racemic) |  |  | ED50 (mice (CD-1 strain) [2]; ip, 1h): 24.7 mg/kg
CNC(=S)OC[C@H](N)Cc1ccccc1 |  |  | ED50 (mice (CD-1 strain) [2]; ip, 1h): 20.9 mg/kg; MES (po, 30mg/kg) (mice (CD-1 strain) [2]; po, 30mg/kg, 0.5h, mice protected / mice tested): 3/3 (0.5h)
NC(=S)OCC(N)Cc1ccc(Cl)cc1 (racemic) | 30.6% | 38.1% | 
CNC(=S)OCCC(N)c1ccccc1 (stereo not drawn) | 44.2% | 29.2% | 
